Measurements: patent US20250092014A1, “COMPOUNDS AND METHODS OF ACTIVATING LIPOPROTEIN LIPASE” (Metrea Biosciences, Inc., priority 2021, published 2025)

Target: T1, LPL:sGPIHBP1 complex (Homo sapiens, UniProt P06858)
T1 sequence (P06858 28-475): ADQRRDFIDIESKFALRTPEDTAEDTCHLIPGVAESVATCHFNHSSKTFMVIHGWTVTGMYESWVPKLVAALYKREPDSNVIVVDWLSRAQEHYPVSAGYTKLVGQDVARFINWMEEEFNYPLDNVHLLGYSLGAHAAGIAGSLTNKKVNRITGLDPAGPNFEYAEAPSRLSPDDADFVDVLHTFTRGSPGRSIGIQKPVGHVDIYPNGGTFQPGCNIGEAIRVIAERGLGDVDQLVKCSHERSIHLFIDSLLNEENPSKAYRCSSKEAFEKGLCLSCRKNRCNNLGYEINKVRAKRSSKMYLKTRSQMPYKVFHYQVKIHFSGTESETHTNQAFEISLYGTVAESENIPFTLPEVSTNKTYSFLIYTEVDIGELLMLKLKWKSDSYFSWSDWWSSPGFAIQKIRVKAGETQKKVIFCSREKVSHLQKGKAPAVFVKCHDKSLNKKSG
T1 sequence (Q8IV16 21-151 partner limits assumed): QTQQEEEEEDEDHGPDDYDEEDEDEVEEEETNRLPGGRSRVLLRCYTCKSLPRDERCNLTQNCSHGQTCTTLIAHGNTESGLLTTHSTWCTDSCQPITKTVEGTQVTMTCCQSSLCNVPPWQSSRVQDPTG
Assay: RB assay (LPL:sGPIHBP1 pre-incubated with ANGPTL4, RB substrate)
Assay type: biochemical
Details: read-out: RB qAC50
Method: The assay was performed in black 1536-well plates using purified proteins. To identify compounds that stimulate LPL activity either by directly activating LPL or by inhibiting the antagonist ANGPTL4, the LPL:sGPIHBP1 complex was pre-incubated with ANGPTL4 to decrease LPL activity by 80%. After a 60 min pre-incubation, the reaction was started by adding the RB substrate. 30 min after RB addition, the enzymatic reaction was stopped using SDS. Fluorescence intensity was measured 2 h after stopping the reaction.
20 or 40 nl of compound solution in 100% DMSO were placed in test plate. Then was added LPL:sGPIHBP1 to all wells (diluted in assay buffer to 5 nM; 2 μl/well). This was followed by an addition of ANGPTL4 to compounds and neutral controls (diluted in assay buffer to 20 nM; 1 μl/well). A buffer solution was added to the stimulator control (1 μl/well). The plates were then centrifuged and pre-incubated for 60 min at RT. The reaction was started by adding substrate to all wells (diluted in assay buffer to 40 μM, 1 μl/well). The plated were centrifuged (800 rpm for 1 min) and incubated 30 min at RT (=reaction time). The reaction was stopped by adding SDS to all wells (diluted in water to 2.5%, 2 μl/well); incubated 2 h at RT. The fluorescence intensity (ex 540 nm/em 590 nm) was measured on a Pherastar (BMG) using 5 flashes.

| SMILES | EC50 |
| --- | --- |
| O=C(O)Cc1cc(F)ccc1NC(=O)c1ccc(N2CCCC2)c(NC(=O)c2nn(CC(F)(F)F)c3ccccc23)c1 [Example 50] | 24 µM |
| O=C(O)Cc1cc(F)ccc1NC(=O)c1ccc(N2CCCCC2)c(NC(=O)c2cc(-c3ccccc3)n(CC(F)(F)F)n2)c1 [Compound 116, 2-(5-fluoro-2-(3-(5-phenyl-1-(2,2,2-trifluoroethyl)-1H-pyrazole-3-carboxamido)-4-(piperidin-1-yl)benzamido)phenyl)acetic acid] | 23 µM |
| CC1CC(C)CN(c2ccc(C(=O)Nc3ccc(F)cc3CC(=O)O)cc2NC(=O)c2nn(CC(F)(F)F)c3ccccc23)C1 (stereo not shown) [Example 74] | > 7.1 µM |
| CC1(C)CCN(c2ccc(C(=O)Nc3ccc(F)cc3CC(=O)O)cc2NC(=O)c2nn(CC(F)(F)F)c3ccccc23)CC1 [Example 61] | 3.6 µM |
| O=C(O)Cc1cc(F)ccc1NC(=O)c1ccc(N2CC3CCC2C3)c(NC(=O)c2nn(CC(F)(F)F)c3ccccc23)c1 (racemic) [Example 58] | 18 µM |
| COC1CCN(c2ccc(C(=O)Nc3ccc(F)cc3CC(=O)O)cc2NC(=O)c2nn(CC(F)(F)F)c3ccccc23)CC1 [Example 65] | > 7.1 µM |
| O=C(O)Cc1cc(F)ccc1NC(=O)c1ccc(N2CCS(=O)(=O)CC2)c(NC(=O)c2nn(CC(F)(F)F)c3ccccc23)c1 [Example 66] | > 25 µM |
| N#CC1CCN(c2ccc(C(=O)Nc3ccc(F)cc3CC(=O)O)cc2NC(=O)c2nn(CC(F)(F)F)c3ccccc23)CC1 [Example 48] | > 25 µM |
| CC(C)(O)Cn1nc(C(=O)Nc2cc(C(=O)Nc3ccc(F)cc3CC(=O)O)ccc2N2CCCCC2)c2ccccc21 [Compound 106, 2-(5-fluoro-2-(3-(1-(2-hydroxy-2-methylpropyl)-1H-indazole-3-carboxamido)-4-(piperidin-1-yl)benzamido)phenyl)acetic acid] | 7.7 µM |
| O=C(O)Cc1cc(F)ccc1NC(=O)c1ccc(N2CCCCC2)c(NC(=O)c2nn(CCO)c3ccccc23)c1 [Compound 99, 2-(5-fluoro-2-(3-(1-(2-hydroxyethyl)-1H-indazole-3-carboxamido)-4-(piperidin-1-yl)benzamido)phenyl)acetic acid] | > 25 µM |
| O=C(O)Cc1cc(F)ccc1NC(=O)c1ccc(N2CCCCC2)c(NC(=O)c2nn(CCC(F)(F)F)c3ccccc23)c1 [Compound 121, 2-(5-fluoro-2-(4-(piperidin-1-yl)-3-(1-(3,3,3-trifluoropropyl)-1H-indazole-3-carboxamido)benzamido)phenyl)acetic acid] | 4.2 µM |
| O=C(O)Cc1cc(F)ccc1NC(=O)c1ccc(N2CCCCC2)c(NC(=O)c2nn(CC(F)(F)F)c3ccc(F)cc23)c1 [Compound 138, 2-(5-fluoro-2-(3-(5-fluoro-1-(2,2,2-trifluoroethyl)-1H-indazole-3-carboxamido)-4-(piperidin-1-yl)benzamido)phenyl)acetic acid] | 4.8 µM |
| O=C(O)Cc1cc(F)ccc1NC(=O)c1ccc(N2CCCCC2)c(NC(=O)c2nn(CC3CCC3)c3ccccc23)c1 [Compound 98, 2-(2-(3-(1-(cyclobutylmethyl)-1H-indazole-3-carboxamido)-4-(piperidin-1-yl)benzamido)-5-fluorophenyl)acetic acid] | 6.1 µM |
| O=C(O)Cc1cc(F)ccc1NC(=O)c1ccc(N2CCC(F)(F)CC2)c(NC(=O)c2nn(CC(F)(F)F)c3ccccc23)c1 [Example 40] | 3.5 µM |
| O=C(O)Cc1cc(F)ccc1NC(=O)c1ccc(N2CCCCC2)c(C(=O)Nc2nn(CC(F)(F)F)c3ccccc23)c1 [Compound 41, 2-(5-fluoro-2-(4-(piperidin-1-yl)-3-((1-(2,2,2-trifluoroethyl)-1H-indazol-3-yl)carbamoyl)benzamido)phenyl)acetic acid] | 4.8 µM |
| N#CCn1nc(C(=O)Nc2cc(C(=O)Nc3ccc(F)cc3CC(=O)O)ccc2N2CCCCC2)c2ccccc21 [Compound 102, 2-(2-(3-(1-(cyanomethyl)-1H-indazole-3-carboxamido)-4-(piperidin-1-yl)benzamido)-5-fluorophenyl)acetic acid] | 5.1 µM |

| SMILES | EC50 |
| --- | --- |
| O=C(O)Cc1cc(F)ccc1NC(=O)c1ccc(N2C3CCC2CC3)c(NC(=O)c2nn(CC(F)(F)F)c3ccccc23)c1 [Example 54] | 6.9 µM |
| O=C(O)Cc1cc(F)ccc1NC(=O)c1ccc(N2CCCCC2)c(NC(=O)c2nn(C3CC3)c3ccccc23)c1 [Compound 97, 2-(2-(3-(1-cyclopropyl-1H-indazole-3-carboxamido)-4-(piperidin-1-yl)benzamido)-5-fluorophenyl)acetic acid] | 13 µM |
| O=C(O)Cc1cc(F)ccc1NC(=O)c1ccc(N2CC3(CCC3)C2)c(NC(=O)c2nn(CC(F)(F)F)c3ccccc23)c1 [Example 49] | 20 µM |
| O=C(O)Cc1cc(F)ccc1NC(=O)c1ccc(N2CCCCC2)c(NC(=O)c2nn(CC3CCCOC3)c3ccccc23)c1 (stereo not shown) [Compound 133, 2-(5-fluoro-2-(4-(piperidin-1-yl)-3-(1-((tetrahydro-2H-pyran-3-yl)methyl)-1H-indazole-3-carboxamido)benzamido)phenyl)acetic acid] | 4.2 µM |
| CN1CCN(c2ccc(C(=O)Nc3ccc(F)cc3CC(=O)O)cc2NC(=O)c2nn(CC(F)(F)F)c3ccccc23)CC1 [Example 57] | > 7.1 µM |
| O=C(O)Cc1cc(F)ccc1NC(=O)c1ccc(N2CCCCC2)c(NC(=O)c2nn(CC(F)(F)F)cc2C2CC2)c1 [Compound 117, 2-(2-(3-(4-cyclopropyl-1-(2,2,2-trifluoroethyl)-1H-pyrazole-3-carboxamido)-4-(piperidin-1-yl)benzamido)-5-fluorophenyl)acetic acid] | > 25 µM |
| O=C(O)Cc1cc(F)ccc1NC(=O)c1ccc(N2CCCCC2)c(NC(=O)c2nn(CC3CCNCC3)c3ccccc23)c1 [Compound 103, 2-(5-fluoro-2-(4-(piperidin-1-yl)-3-(1-(piperidin-4-ylmethyl)-1H-indazole-3-carboxamido)benzamido)phenyl)acetic acid] | > 25 µM |
| O=C(O)Cc1cc(F)ccc1NC(=O)c1ccc(N2CCCCC2)c(NC(=O)c2nn(C[C@H]3CCCO3)c3ccccc23)c1 [Compound 137, (R)-2-(5-fluoro-2-(4-(piperidin-1-yl)-3-(1-((tetrahydrofuran-2-yl)methyl)-1H-indazole-3-carboxamido)benzamido)phenyl)acetic acid] | 3.8 µM |
| O=C(O)Cc1cc(F)ccc1NC(=O)c1ccc(N2CCCCC2)c(NC(=O)c2nn(CC(F)(F)F)c3cccnc23)c1 [Compound 111, 2-(5-fluoro-2-(4-(piperidin-1-yl)-3-(1-(2,2,2-trifluoroethyl)-1H-pyrazolo[4,3-b]pyridine-3-carboxamido)benzamido)phenyl)acetic acid] | 23 µM |
| CC(C)Cn1nc(C(=O)Nc2cc(C(=O)Nc3ccc(F)cc3CC(=O)O)ccc2N2CCCCC2)c2ccccc21 [Compound 95, 2-(5-fluoro-2-(3-(1-isobutyl-1H-indazole-3-carboxamido)-4-(piperidin-1-yl)benzamido)phenyl)acetic acid] | 5 µM |
| N#CC1(Cn2nc(C(=O)Nc3cc(C(=O)Nc4ccc(F)cc4CC(=O)O)ccc3N3CCCCC3)c3ccccc32)CC1 [Compound 127, 2-(2-(3-(1-((1-cyanocyclopropyl)methyl)-1H-indazole-3-carboxamido)-4-(piperidin-1-yl)benzamido)-5-fluorophenyl)acetic acid] | 4.3 µM |
| O=C(O)Cc1cc(F)ccc1NC(=O)c1ccc(N2CCC2)c(NC(=O)c2nn(CC(F)(F)F)c3ccccc23)c1 [Compound 39, 2-(2-(4-(azetidin-1-yl)-3-(1-(2,2,2-trifluoroethyl)-1H-indazole-3-carboxamido)benzamido)-5-fluorophenyl)acetic acid] | > 25 µM |
| O=C(O)Cc1cc(F)ccc1NC(=O)c1ccc(N2CCCCC2)c(NC(=O)c2nn(CC3CC3)c3ccccc23)c1 [Compound 94, 2-(2-(3-(1-(cyclopropylmethyl)-1H-indazole-3-carboxamido)-4-(piperidin-1-yl)benzamido)-5-fluorophenyl)acetic acid] | 5.9 µM |
| O=C(O)Cc1cccc(F)c1NC(=O)c1ccc(N2CCCCC2)c(NC(=O)c2nn(CC(F)(F)F)c3ccccc23)c1 [Compound 24, 2-(3-fluoro-2-(4-(piperidin-1-yl)-3-(1-(2,2,2-trifluoroethyl)-1H-indazole-3-carboxamido)benzamido)phenyl)acetic acid] | 3.2 µM |
| O=C(O)Cc1cc(F)ccc1NC(=O)c1ccc(N2CCCCC2)c(NC(=O)c2cn3ccccc3n2)c1 [Compound 109, 2-(5-fluoro-2-(3-(imidazo[1,2-a]pyridine-2-carboxamido)-4-(piperidin-1-yl)benzamido)phenyl)acetic acid] | > 25 µM |
